Assay results reported in article PMC5382548 (Scientific Reports, 2015).

Key:
mouse KRAS promoter = tested on: mouse KRAS promoter; set-up: method as in PMID 16687659; details: 3–20 μM 24 hours prior to transfection; cited from earlier work
[1] = tested on: KRAS mRNA in Panc-1 cells; set-up: method as in PMID 18490377; details: 12 or 24 hours, 50 μM; cited from earlier work
F21T G4 = test: FRET melting competition assay, labelled F21T; type: binding, human; details: ligand 1 μM, labelled F21T 0.2 μM
Description: To assess selectivity of the IQc compounds 2d and 3e to different DNA sequences, we performed competitive FRET experiments with 0.2 μM of labelled KRAS21R and F21T G4 and increasing concentrations of two non-fluorescent competitors, 26mer ds-DNA or the human telomeric sequence (HT21). A decrease in ΔTm indicates the displacement of the ligand from labelled G4 by the competitor DNA.
Figure 3 FRET melting competition assay data for (a) 2d and (b) 3e (1 μM) in complex with KRAS21R and F21T G4s (0.2 μM), with increasing concentrations of non-labeled 26ds, HT21 or KRAS21R (0.4 to 25 μM) competitor, in K-cacodylate buffer (pH 7.4, 60 mM K^+).
Oligonucleotide sequences were purchased from Eurofins MWG Synthesis GmbH, Germany or STAB VIDA Genomics Lab, Caparica, Lisbon, Portugal. The labelled oligonucleotides used in the FRET assays had attached the donor fluorophore FAM (6-carboxyfluorescein) and the acceptor fluorophore TAMRA (6-carboxytetramethylrhodamine): KRAS21R: 5′-FAM-[…]-TAMRA-3′; KRAS32R: 5′-FAM-[…]-TAMRA-3′; UTR-1: 5′-FAM-GCGGCGGCGGAGG-TAMRA-3′; UTR-2: 5′-FAM-[…]-TAMRA-3; T-Loop:5′-FAM-[…]-TAMRA-3′; F21T: 5′-FAM-[…]-TAMRA-3′. Non-labelled oligonucleotides were used in FRET competition assays and in the spectroscopic studies: ds26: - d(5′-CAATCGGATCGAATT CGATCCGATTG-3′); KRAS21R: 5′-[…]-3′; HT21: 5′-[…]-3′. […]

For `C[n+]1ccc(-c2c3nc(c(-c4cc[n+](C)cc4)c4ccc([nH]4)c(-c4cc[n+](C)cc4)c4ccc([nH]4)c(-c4cc[n+](C)cc4)c4nc2C=C4)C=C3)cc1` [TMPyP4, reference compound], the “Reduction of mouse KRAS promoter activity” value (mouse KRAS promoter) is given as 80% and the “Decrease in KRAS mRNA levels” value [1] is given as about 30%.
For `CCN(CC)CCCNc1ccc2c(c1)[nH]c1c2c[n+](C)c2ccc(NCCCN(CC)CC)cc12.[Cl-]` [3e], the “Concentration of competitor KRAS21R reducing the induced thermal stability of F21T by 50%” value (F21T G4) was 2 µM.
